Patent US20140343105A1, “NOVEL ORALLY ADMINISTERED DABIGATRAN FORMULATION” (BOEHRINGER INGELHEIM INTERNATIONAL GMBH, priority 2012, published 2014)
≈ marks a conversion by molar mass, not a printed value.

Experiments:
[1] = Solubility of DS in presence of hydrophilic polymers (CMC-Na) and cyclodextrins; type: physicochemical
Description: (§1) 2 ml Eppendorf tubes can be filled with about 1.8 ml aqueous solution with a selected pH value. The volume used for the screening is 1.8 ml. The molar amount of cyclodextrin (CD) in the given volume is calculated for the given CD concentration. For a given molar ratio of active ingredient DS/CD the amount of active ingredient (DS) is calculated. Normally, a molar ratio of DS/CD=1/1 is targeted: 1 mol DS and 1 mol CD. As precise as possible, the calculated amount of DS is weighted into the tube exactly. The actual amount is reported.
(§2) According to the actual amount of DS the necessary volume of CD solution is calculated. As precise as possible, the requested volume of CD solution is pipetted into the tube. The actual volume pipetted is reported. The solution in the tube is placed on an Eppendorf Vario shaker. The solution is intensively shaken by means of ultrasound (Hielscher Ultrasound Processor) for 10 seconds at the maximum. It is payed attention to heat generation and overheating has to be avoided.
(§3) The tube is shaken for 1 hour in the Eppendorf Thermomixer at the given temperature and at 800 rpm. Subsequently, the pH value is checked and the given pH value adjusted accordingly, if necessary. The tube is shaken for 24 hours in the Eppendorf Thermomixer at the given temperature and at 800 rpm.
Eppendorf tubes are centrifuged for about 15 minutes at the given temperature, but at 40° C. at the maximum (max. temperature of the centrifuge), and 14,000 rpm. In case no clear supernatant is obtained centrifugation is repeated with adjusted rpm (revolutions per minute) and time. In case the supernatant is not clear and a filtration step is necessary the content of the tube is sucked or poured into 2 ml single use syringe. The supernatant is filtered through a 0.2 μm filter (Pall GHP Acrodisc 13 mm Syringe Filter 0.2 μm pore size). About 2-3 drops of the solution are discarded. The rest of the volume is collected in a second tube. If temperatures above room temperature (about 22° C.) are given, filters and tubes have to be tempered at that temperature prior to use.
(§4) The clear supernatant or filtrate is used for the analysis of the concentration. The pH value of the clear solution is analysed. The DS concentration of the clear solution is measured by UV/VIS spectroscopy (e.g., Hewlett-Packard 8453 UV/Visible Spectrophotometer).
DS, especially Dabigatranetexilat methanesulphonate, is tested for its solubility in dependency of the presence of various hydrophilic polymers and various cyclodextrins whereby the hydrophilic polymer is added to the aqueous solution before adding the DS.

[2] = Solubility of the active ingredient (DS) in cyclodextrin solutions at various pH values (UV/VIS); type: physicochemical
Description: Dabigatranetexilat methanesulphonate is tested for its solubility in dependency of the presence of various cyclodextrins at various ph values as follows:
as §1, §2, §3
Eppendorf tubes are centrifuged for about 15 minutes at the given temperature, but at 40° C. at the maximum (max. temperature of the centrifuge), and 14,000 rpm. In case no clear supernatant is obtained centrifugation is repeated with adjusted rpm (revolutions per minute) and time. […]
as §4

## CCCCCCOC(=O)NC(=N)c1ccc(NCc2nc3cc(C(=O)N(CCC(=O)OCC)c4ccccn4)ccc3n2C)cc1 [DS, dabigatran etexilate]
[1]; addition of 0.05% to 0.5% of CMC-Na, α-CD 10% (w/v)
  increase of the solubility of the DS and of the drug load DS/CD: up to 11%
[1]; addition of a hydrophilic polymer before adding the DS
  complexation efficiency of the CD: significantly improved
[1]; aqueous α-cyclodextrin solution with CMC-Na, aqueous with cosolvent or surfactant or cyclodextrin, thermodynamic from solid, 14% α-CD solution at pH 3 with 0.25% CMC-Na
  solubility at 24 h: ~67.3 mg/mL
[1]; α-CD, CMC-Na added
  g α-CD to complex 1 g API: ≈ 2.1 g
  mol α-CD necessary to complex 1 mol API: About 1.6 mol
[2]; all cyclodextrins tested, various pH values
  effect of cyclodextrins on solubility of the active ingredient: significantly improve the solubility
[2]; aqueous α-cyclodextrin solution, aqueous with cosolvent or surfactant or cyclodextrin, thermodynamic from solid, 10% (w/v) α-CD solution at pH 3
  solubility at 24 h: ~43 mg/mL (≈ 68.5 mM)
[2]; α-CD 10% (w/v)
  mol α-CD necessary to complex 1 mol API: About 1.7 mol
